Literature values in PMC12802961 (Journal of Antimicrobial Chemotherapy, 2025).
Where two headings read alike, the source gives them in different places.

Conditions: cited from earlier work

SMILES	Ct (threshold concentration) (ceftolozane/tazobactam)	Ct (threshold concentration) (ceftazidime/avibactam)
C[C@]1(Cn2ccnn2)[C@H](C(=O)O)N2C(=O)C[C@H]2S1(=O)=O [tazobactam]	0.5 mg/L	
NC(=O)[C@@H]1CC[C@@H]2CN1C(=O)N2OS(=O)(=O)O [avibactam]		1 mg/L
